Legend:
[1] = test system: human mesenchymal stem cells (hMSC); assay: mRNA expression in hMSC by real-time PCR; assay type: cell-based
Description: FIG. 25A is a table representing mRNA expression of selected genes measured by real-time PCR in human mesenchymal stem cells (hMSC) conditioned with Celastrol alone or in combination with selected adjunct agents. Results are expressed as fold change versus Vehicle-treated cells.
FIG. 25B is a table representing mRNA expression of selected genes measured by real-time PCR in human mesenchymal stem cells (hMSC) conditioned with selected Celastrol analogs alone or in combination with selected adjunct agents. Results are expressed as fold change versus Vehicle-treated cells.
Results are expressed as fold change versus Vehicle-treated cells. (Arbitrary angiogenic index: (VEGFa+FGF2+SDF1)*2) (A=Additive effect; S=Synergistic effect).
(§1) To test the second main condition, MSCs were treated with the candidate pharmaco-optimizers for 1 hour, followed by 3 hours washout period. Cell mRNA was extracted and expression of genes of interest was quantified by real time PCR. In additional MSC cultures, cells were treated for one hour, washed and cultured in low serum media for 24 hours. The media containing paracrine factors secreted by MSCs was then placed in contact with H9c2 cardiomyoblast cell line. H9c2 cells were then submitted to the hypoxia/serum starvation (<1% O2 in hypoxia chamber in low serum media for 48 hours) or oxidative stress (incubation in media for 1 hour spiked with 0-1 mM H2O2). Viability status of H9c2 cells was evaluated using the LIVE/DEAD assay as detailed above.

H9c2 cardiomyoblasts [2] = assay: H9c2 viability under hypoxia/serum starvation (LIVE/DEAD); assay type: cell-based, rat; conditions: 1 uM
Experimental: For survival to hypoxic challenge and oxidative challenge, H9c2 cardiomyoblasts are submitted to the hypoxia/serum starvation (<1% O2 in hypoxia chamber in low serum media for 48 hours) or oxidative stress (incubation in media for 1 hour spiked with 0-1 mM H2O2). Viability status of H9c2 cells was evaluated using the LIVE/DEAD assay.

H9c2 cardiomyoblasts [3] = assay: H9c2 viability under hypoxia/reoxygenation stress; assay type: cell-based, rat; conditions: 1 uM
Experimental: Next, the hypoxia/reoxygenation challenge is performed. Briefly, viability analysis was performed in rat H9c2 cardiomyoblasts as previously reported. For hypoxia/reoxygenation stress, cells were cultured in DMEM no glucose (Life Technologies), serum starved and placed in hypoxic conditions (<1% O2) for 18 h. At reoxygenation (normoxic conditions), cells were treated with Celastrol (10^−10 to 10^−6 mol/L, Cayman Chemical, Ann Arbor, Mich.), Celastrol analogs or vehicle (Dimethyl sulfoxide (DMSO), Sigma-Aldrich Canada, Oakville, ON; final concentration<1% v/v) in DMEM high glucose 1% FBS for 1 h, then reoxygenation was continued in DMEM high glucose for an additional 5 h.

[4] = test system: human mesenchymal stem cells (hMSCs); assay: VEGFa protein secreted by hMSC into culture medium; assay type: cell-based; conditions: 1-hour treatment combined with Celastrol; for VEGF protein after 48 hours in hypoxic condition: compared with normal culture; for VEGF protein after 48 hours in normal culture: normoxic
H9c2 cardiomyoblasts [5] = assay: HO-1 and VEGFa mRNA in H9c2 cardiomyoblasts by real-time PCR; assay type: cell-based, rat; conditions: H9c2, 1-hour with Celastrol plus adjunct, 3 hour washout in normoxic or hypoxic condition
Description: Results are expressed as fold change versus Vehicle-treated h9c2.

H9c2 cardiomyoblasts [6] = assay: H9c2 viability after oxidative challenge, direct treatment with Celastrol combinations; assay type: cell-based, rat; conditions: 1-hour treatment combined with Celastrol; 1 mM H2O2 for 1 hour
[7] = test system: rat mesenchymal stem cells (rMSC); assay: rMSC viability after oxidative stress (H2O2, LIVE/DEAD); assay type: cell-based; conditions: 1-hour treatment
Experimental: (§2) To test the first main condition, MSCs (either sourced from rat or humans) were treated with the candidate pharmaco-optimizers, washed and submitted to hypoxia/serum starvation (<1% O2 in hypoxia chamber in low serum media for 48-72 hours) or oxidative stress (incubation in media for 1 hour spiked with 0-2 mM H2O2), which mimic the major lethal stressors present in the ischemic transplant microenvironment. Viability status of cells are assessed using the LIVE/DEAD viability/cytotoxicity kit (Life Technologies™) and results are quantified by Operetta high content screening (HCS) apparatus equipped with Harmony automated analysis software (Perkin Elmer™).

[8] = test system: rat mesenchymal stem cells (rMSC); assay: mRNA expression in rMSC by real time PCR; assay type: cell-based; conditions: for effect on Celastrol-induced Catalase (CAT) mRNA expression / effect on Celastrol-induced FGF2 mRNA expression / effect on Celastrol-induced Glutathione peroxidase (GPx) mRNA expression / effect on Celastrol-induced Glutathione reductase (GR) mRNA expression / effect on Celastrol-induced HSP32 (HO-1) mRNA expression / effect on Celastrol-induced HSP70 mRNA expression / effect on Celastrol-induced Superoxide dismutase 1 (SOD1) mRNA expression / effect on Celastrol-induced VEGFα mRNA expression / effect on Celastrol-induced downregulation of TNFα mRNA / effect on Celastrol-induced HSP70 expression in two other rMSC cell lines: combined with Celastrol
Experimental: as §1
Combination Treatments Tested—First Experiment: Celastrol (1 μM) or Gedunin (1 μM)+EGCG (1 μM, 10 μM) or TBHQ (1 μM, 5 μM)

H9c2 cells = assay: H9c2 viability in oxidative stress after pre-conditioning with media from treated rMSC (paracrine); assay type: cell-based, rat; conditions: 24-hour preconditioning with media from treated rMSC
Experimental: as §1

[9] = test system: rat mesenchymal stem cells (rMSC); assay: rMSC viability after hypoxia/serum starvation (LIVE/DEAD); assay type: cell-based; conditions: 1-hour treatment; for protection of rMSCs from 48-hour hypoxia induced cell death: compound alone
Experimental: as §2

[10] = test system: human mesenchymal stem cells (hMSC); assay: Proteomic analysis (mass spectrometry) of conditioned media of treated hMSC; assay type: cell-based; conditions: one hour Celastrol 10^−6 M
Experimental: Conditioned cell media was collected, concentrated, proteins were separated by gel electrophoresis and analyzed by mass spectrometry and identified through database search.
Briefly, rat MSCs were treated in suspension with conditioning compounds for 60 minutes. Cells were then washed, labeled with fluorescent cell tracker and injected at t=0 in rat left ischemic hindlimb. Transplanted cells were imaged in vivo until day 9 using Optix™ MX3 Molecular Imaging System from ART (FIG. 2: A,B).

[11] = rMSC, 1-hour treatment and 3-hour washout
[12] = rMSC, 1-hour treatment and 3-hour washout, combined with Gedunin
[13] = 1-hour treatment and 3-hour washout, combined with Celastrol

Compound: CC(C)c1cc2c(c(O)c1O)[C@@]13CCCC(C)(C)[C@@H]1C[C@@H]2OC3=O [Carnosol]
- ranking as adjunct agent in combination with Celastrol or Celastrol analogs (gene expression) ([1]; FIGS. 25A, 25B, 26A to 26D): among top adjunct agents

Compound: Cc1c(O)c(O)cc2c1[C@H](C[N+](=O)[O-])C=C1[C@@]2(C)CC[C@@]2(C)[C@@H]3C[C@](C)(C(=O)O)CC[C@]3(C)CC[C@]12C [Analog 2]
- protection of H9c2 cardiomyoblasts from hypoxia (H9c2 cardiomyoblasts [2]): effective
- protection of H9c2 cardiomyoblasts from hypoxia/reoxygenation stress (H9c2 cardiomyoblasts [3]): effective

Compound: COc1cc(/C=C/C(=O)CC(=O)/C=C/c2ccc(O)c(OC)c2)ccc1O [Curcumin]
- ranking as adjunct agent in combination with Celastrol or Celastrol analogs (gene expression) ([1]; FIGS. 25A, 25B, 26A to 26D): among top adjunct agents
- VEGF protein after 48 hours in hypoxic condition [4]: even greater expression of VEGF protein
- VEGF protein after 48 hours in normal culture [4]: additive to synergistic increase in VEGF protein

Compound: O=C(C=Cc1ccccc1O)C=Cc1ccccc1O [Analog 2HBA, Bis(2-hydroxybenzylidene)acetone]
- ranking as adjunct agent in combination with Celastrol or Celastrol analogs (gene expression) ([1]; FIGS. 25A, 25B, 26A to 26D): among top adjunct agents
- mRNA expression of HO-1 (H9c2 cardiomyoblasts [5]): increased mRNA expression
- mRNA expression of VEGFa (H9c2 cardiomyoblasts [5]): increased mRNA expression
- viability of H9c2 cells following oxidative challenge (H9c2 cardiomyoblasts [6]): synergistic increase in viability
- VEGF protein after 48 hours in hypoxic condition [4]: even greater expression of VEGF protein
- VEGF protein after 48 hours in normal culture [4]: additive to synergistic increase in VEGF protein

Compound: Cc1c(O)c(O)cc2c1CC=C1[C@@]2(C)CC[C@@]2(C)[C@@H]3C[C@](C)(C(=O)O)CC[C@]3(C)CC[C@]12C [Dihydrocelastrol, dihydrocelastrol]
- ranking as HSP90 inhibitor from expression of HSPs, growth factors, antioxidant proteins/enzymes, cytokines, matrix remodeling proteins ([1]; FIGS. 25A, 25B, 26A to 26D): best HSP90 inhibitors

Compound: O=C(O[C@@H]1Cc2c(O)cc(O)cc2O[C@@H]1c1cc(O)c(O)c(O)c1)c1cc(O)c(O)c(O)c1 [EGCG, epigallocatechin gallate]
- effect on Celastrol-induced protection of rMSCs from oxidative stress induced death ([7]; combined with Celastrol): potentiates Celastrol-induced protection
- protection of rMSCs from oxidative stress induced death ([7]; compound alone): protect
- effect on Celastrol-induced Catalase (CAT) mRNA expression [8, 11]: synergistic increase
- effect on Celastrol-induced FGF2 mRNA expression [8, 11]: synergistic increase
- effect on Celastrol-induced Glutathione peroxidase (GPx) mRNA expression [8, 11]: synergistic increase
- effect on Celastrol-induced Glutathione reductase (GR) mRNA expression [8, 11]: synergistic increase
- effect on Celastrol-induced HSP32 (HO-1) mRNA expression [8, 11]: synergistic increase
- effect on Celastrol-induced HSP70 mRNA expression [8, 11]: synergistic increase
- effect on Celastrol-induced Superoxide dismutase 1 (SOD1) mRNA expression [8, 11]: synergistic increase
- effect on Celastrol-induced VEGFα mRNA expression [8, 11]: synergistic increase
- effect on Celastrol-induced downregulation of TNFα mRNA [8, 11]: synergistically accentuate
- effect on Gedunin-induced downregulation of TNFα mRNA [8, 12]: synergistically accentuate
- effect on Celastrol-induced HSP70 expression in two other rMSC cell lines [8]: synergistic increase
- effect on Celastrol-induced HSP32 (HO-1) mRNA expression in human MSC [1, 13]: synergistic increase
- effect on Celastrol-induced HSP70 mRNA expression in human MSC [1, 13]: synergistic increase
- ranking as adjunct agent in combination with Celastrol or Celastrol analogs (gene expression) ([1]; FIGS. 25A, 25B, 26A to 26D): among top adjunct agents
- mRNA expression of HO-1 (H9c2 cardiomyoblasts [5]): increased mRNA expression
- mRNA expression of VEGFa (H9c2 cardiomyoblasts [5]): increased mRNA expression
- protection of H9c2 cells from oxidative stress induced death (paracrine) (H9c2 cells): protects
- effect on Celastrol-mediated protection of rMSCs from hypoxia induced cell death ([9]; combined with Celastrol): potentiates Celastrol-mediated protection
- protection of rMSCs from 48-hour hypoxia induced cell death [9]: not
- viability of H9c2 cells following oxidative challenge (H9c2 cardiomyoblasts [6]): synergistic increase in viability
- VEGF protein after 48 hours in hypoxic condition [4]: even greater expression of VEGF protein
- VEGF protein after 48 hours in normal culture [4]: additive to synergistic increase in VEGF protein

Compound: CC(C)(C)c1cc(O)ccc1O [tBHQ, tert-Butylhydroquinone]
- effect on Celastrol-induced Catalase (CAT) mRNA expression [8, 11]: synergistic increase
- effect on Celastrol-induced FGF2 mRNA expression [8, 11]: synergistic increase
- effect on Celastrol-induced Glutathione peroxidase (GPx) mRNA expression [8, 11]: synergistic increase
- effect on Celastrol-induced Glutathione reductase (GR) mRNA expression [8, 11]: synergistic effect only at low dose
- effect on Celastrol-induced HSP32 (HO-1) mRNA expression [8, 11]: synergistic increase
- effect on Celastrol-induced HSP70 mRNA expression [8, 11]: synergistic increase
- effect on Celastrol-induced Superoxide dismutase 1 (SOD1) mRNA expression [8, 11]: no effect
- effect on Celastrol-induced VEGFα mRNA expression [8, 11]: decreases
- effect on Celastrol-induced downregulation of TNFα mRNA [8, 11]: synergistically accentuate
- FGF2 mRNA expression, combination with Gedunin [8, 12]: increased
- effect on Gedunin-induced downregulation of TNFα mRNA [8, 12]: synergistically accentuate
- effect on Gedunin expression of VEGF ([8]; rMSC, combined with Gedunin): decreases
- effect on Celastrol-induced HSP70 expression in two other rMSC cell lines [8]: no effect
- ranking as adjunct agent in combination with Celastrol or Celastrol analogs (gene expression) ([1]; FIGS. 25A, 25B, 26A to 26D): among top adjunct agents
- protection of H9c2 cells from oxidative stress induced death (paracrine) (H9c2 cells): protects
- protection of rMSCs from 48-hour hypoxia induced cell death [9]: not
- viability of H9c2 cells following oxidative challenge (H9c2 cardiomyoblasts [6]): synergistic increase in viability
- VEGF protein after 48 hours in hypoxic condition [4]: even greater expression of VEGF protein
- VEGF protein after 48 hours in normal culture [4]: additive to synergistic increase in VEGF protein

Compound: CC1=C(O)C(=O)C=C2C1=CC=C1[C@@]2(C)CC[C@@]2(C)[C@@H]3C[C@](C)(C(=O)O)CC[C@]3(C)CC[C@]12C [Celastrol]
- increased level of CAT in the culture media [10]: 1,7 fold
- increased level of GSH in the culture media [10]: 2,8 fold
- increased level of HGF in the culture media [10]: 2,1 fold
- increased level of HO1 in the culture media [10]: 2,2 fold
- increased level of HSP70 in the culture media [10]: 1,8 fold
- increased level of HSP90a in the culture media [10]: 7,0 fold
- increased level of HSP90b in the culture media [10]: 2,2 fold
- increased level of MCSF in the culture media [10]: 24,4 fold
- increased level of TRX in the culture media [10]: 2,5 fold

From patent publication US11446265B2, “Reagents, compositions and methods for improving viability and function of cells, tissues and organs” (TARGA BIOMEDICAL, priority 2016, dated 2022)
